Assays:
[1] = Measurement of body temperature increase (rectal body temperature); format: in vivo, rat; conditions: Crl/SD rats, oral; for Body temperature increase: 1 mg/mL at 10 mL/kg
Experimental: Test Animals: Selection of rats (Crl/SD rats, 7 weeks, male) for this study was based on rectal body temperature measured during the morning of the day of dosing. In addition, animals selected for this study were acclimated to both the rectal measurement procedure and to being handled and dosed to minimize spontaneous, stress-induced, increases in body temperature. The study was conducted in the animal care laboratories where the room temperature and humidity were kept. The rats were free to move and food and water during the study. Each rat was numbered with color line on the tail, housed in each cage and permitted the normal range of movement. Immediately before each body temperature was measured, they transferred to a single cage at each measurement. To reduce stress which affected the body temperature, the rats were covered with towels at the measurement. The thermistor probe was then carefully inserted into the rectum of each rat and left in place until the value on the digital display had stabilized.
Assays: On the day before dosing, rectal body temperatures were measured at 9:00, 10:00, 11:00, 12:30, 13:30, 14:30 and 15:30 to familiarize the animals with the measurement procedure prior to administration of the test or control treatments. The rats were also dosed by oral gavage without vehicle at 12:30 to acclimate and familiarized the animals with the handling and dosing procedure.
On the day of dosing, only rats whose rectal body temperatures were within the range of 37.0° C. to 37.7° C. were selected for this study. Rectal body temperatures were measured at 9:00, 10:00 and 11:00. Rats whose rectal body temperatures were over 37.9° C. at 10:00, and were outside the range of 37.0° C. to 37.7° C. at 11:00 were excluded from the study. The selected rats were divided to several groups based on their rectal body temperatures at 11:00. Rectal body temperatures of the selected rats were measured again at 12:30, and any rats whose rectal body temperature was 38.0° C. or greater were excluded from the study.
Following the group assignment, test compounds or vehicle was administrated to the rats. Each test compound was dissolved in 0.5% methylcellurose and the final concentration of the compound was adjusted to 1 mg/mL. Test compound was orally administrated in a volume 10 mL/kg once. 10 mL/kg of vehicle (0.5% methylcellurose) was administered to the vehicle group. The rectal body temperatures were measured 0.5, 1 and 2 hrs after the administration. The study was conducted in the animal care laboratories where the room temperature and humidity were kept.
Body temperature increase (ΔTb) was calculated from the difference from an average of the vehicle group at each time point.

human recombinant TRPV1 [2] = biological target: T1, human recombinant TRPV1 (Homo sapiens (Human), UniProt Q8NER1); assay: TRPV1 pH-Based Assay (Protocol 2, Ca2+ response in TRPV1/CHO cells, Fura-2); format: cell-based; conditions: TRPV1/CHO cells, pH 5.0-5.1; read-out: IC50 value by the pH-Based Assay
T1 sequence (Q8NER1 whole entry): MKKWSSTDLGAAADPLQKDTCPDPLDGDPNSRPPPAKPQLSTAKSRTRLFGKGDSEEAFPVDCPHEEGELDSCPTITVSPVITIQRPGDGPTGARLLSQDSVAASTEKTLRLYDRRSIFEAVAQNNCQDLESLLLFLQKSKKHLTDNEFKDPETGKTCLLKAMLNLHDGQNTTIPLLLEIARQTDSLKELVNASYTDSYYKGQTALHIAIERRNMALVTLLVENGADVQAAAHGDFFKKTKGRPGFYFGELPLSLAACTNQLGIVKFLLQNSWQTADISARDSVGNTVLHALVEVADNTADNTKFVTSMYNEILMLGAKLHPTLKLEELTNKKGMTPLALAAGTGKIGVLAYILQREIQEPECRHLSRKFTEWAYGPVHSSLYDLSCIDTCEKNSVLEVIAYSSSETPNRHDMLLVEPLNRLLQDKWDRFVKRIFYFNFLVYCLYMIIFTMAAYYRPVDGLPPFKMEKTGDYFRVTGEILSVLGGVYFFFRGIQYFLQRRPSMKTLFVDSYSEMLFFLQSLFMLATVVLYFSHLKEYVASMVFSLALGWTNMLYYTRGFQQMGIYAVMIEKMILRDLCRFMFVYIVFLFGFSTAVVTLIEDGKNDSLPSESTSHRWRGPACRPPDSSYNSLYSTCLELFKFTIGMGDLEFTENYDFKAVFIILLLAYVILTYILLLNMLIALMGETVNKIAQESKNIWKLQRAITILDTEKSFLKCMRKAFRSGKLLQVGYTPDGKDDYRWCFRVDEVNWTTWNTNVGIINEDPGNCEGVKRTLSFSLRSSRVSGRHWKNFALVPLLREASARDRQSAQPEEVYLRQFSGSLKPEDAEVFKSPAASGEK
Experimental: (§1) For Protocol 2, a Chinese Hamster Ovary cell line (CHO) that has been engineered to constitutively express human recombinant TRPV1 was used (TRPV1/CHO cells). The TRPV1/CHO cell line was generated as described below.
TRPV1/CHO cells were seeded in the 96-well clear-bottom black-wall plate (Nunc) at densities of 1-2×10^4 cells/well and grown in 100 μL of culture medium (alpha-MEM supplemented with 10% FBS, 20 mM HEPES, 1 mg/mL geneticin and 1% antibiotic-antimycotic mixed stock solution) for 1-2 days before the experiment.
(2) The 96-well plate was incubated at 37° C. for 45 min.
(3) The loading buffer was removed from each well. […] The wells were then refilled with 80 μL of measuring buffer.
(4) After an incubation at 4° C. for 15 min, the 96-well plate was transferred to FDSS-3000 (Hamamatsu Photonics, Japan).
(5) The Fura-2 fluorescent intensity was monitored at a wavelength of 340 nm and at 380 nm, respectively, at a rate of 0.5 Hz for a total of 240 seconds. After 16 time points (32 sec) of baseline detection, 20 μL of agonist solution was added to each well. The final volume was 100 μL/well.
(6) Fluorescence intensity ratio refers to the fluorescence intensity at 340 nm over the fluorescence intensity at 380 nm at a particular time point. The baseline was set as the average of the fluorescent intensity ratios for the first 16 time points before the addition of agonist solution. The maximum response was the highest fluorescent intensity ratio during the 60 time points following addition of agonist solution.
(7) Maximal signal ratios from each well were calculated as output data using the FDSS-3000 analysis program. Data were analyzed using Excel (Microsoft) and XLfit (idbs) software.
Two different agonist solutions with different H2SO4 concentrations were used for the pH assay (FIG. 3A). For one half of a 96-well plate one agonist solution was used, for the other half the other agonist solution. The agonist solutions were obtained by diluting sulfuric acid (H2SO4, 1M) with measuring buffer. The concentrations for the two agonist solutions were determined as described above in Section 2 of Protocol 2.
The sulfuric acid concentrations between the two agonist solutions differed by 0.5 mM. […] After 1:4 dilution of the agonist solutions, the final sulfuric acid concentration was 3.2 mM and 3.3 mM, respectively. The resulting pH value for the pH assay was 5.0 to 5.1.
Test compounds were dissolved in DMSO to yield 1 mM stock solutions. […] The thereby-obtained solutions were further diluted in measuring buffer (1:100) as 10× stock serial dilutions with a DMSO concentration of 1%. 10 μL of a 10× stock was added into each well at step 3.3.(4) of Protocol 2.
Steps (1) and (2) of this Assay were the same as steps 2.2.(1) and 2.2.(2) of Protocol 2, respectively.
(3) The cells were washed twice with 150 μL of measuring buffer (mentioned in 2.2.(3) of Protocol 2, no probenecid). The wells were subsequently refilled with 70 μL of measuring buffer.
(4) Either 10 μl of measuring buffer or 10 μL of 10× stock serial dilution of test compound (described in 3.2. above) were applied to each well. Usually, only one test compound was tested per 96-well plate. The number of replicates per 96-well plate for a particular antagonist at a particular concentration was 7×2 since two different sulfuric acid concentrations were used per 96-well plate (N=7×2) (FIG. 3).
Step (5) was the same as 2.2.(4) above.
(6) Fura-2 fluorescent intensity was monitored as described in 2.2.(5) above. After 16 time points of baseline detection, 20 μL of agonist solution (measuring buffer titrated with H2SO4 to yield pH 5.0-5.1 when mixed 1:4 with the measuring buffer containing test compound) was added to each well (final volume 100 μL/well).
Steps (7) and (8) were as described in 2.2.(6) and 2.2.(7) above, respectively.
(1) The pH values of the buffer in the wells of A1→H1 and A7→H7 (longitudinally; FIG. 3) were measured one by one using a portable pH meter.

human recombinant TRPV1 [3] = biological target: T1, human recombinant TRPV1; assay: TRPV1 Capsaicin-Based Assay (Protocol 2, TRPV1/CHO cells, Fluo-4, FLIPR); format: cell-based; conditions: TRPV1/CHO cells, capsaicin 100 nM final; read-out: IC50 value by the Capsaicin-Based Assay
Experimental: as §1
One day prior to assay, TRPV1/CHO cells were seeded in 96-well clear-bottom black plates (20,000 cells/well) in growth media. On the day of the experiment, the cells were washed with 0.2 mL 1× Hank's Balanced Salt Solution (Life Technologies) containing 1.6 mM CaCl2 and 20 mM HEPES, pH 7.4 (“wash buffer”). Subsequently, the cells were loaded by incubation in 0.1 mL of wash buffer containing Fluo-4 at 3 μM final concentration. After 1 hour, the cells were washed twice with 0.2 mL wash buffer and resuspended in 0.1 mL wash buffer. The plates were then transferred to a Fluorescence Imaging Plate Reader (Molecular Devices). Fluorescence intensity was monitored for 15 seconds to establish a baseline. Subsequently, test compounds diluted in assay buffer (1× Hank's Balanced Salt Solution containing 1 mM CaCl2 and 20 mM HEPES, pH 7.4) containing 1% DMSO were added to the cell plate and fluorescence was monitored for 2 minutes. […] Human TRPV1 was then activated by the addition of 50 μL capsaicin (100 nM final concentration) and plates incubated for an additional 3 min. Data were collected over the entire time course and analyzed using Excel and the curve-fitting formula GraphPad Prism.

Row | Structure (SMILES) | Body temperature increase [1] | IC50 (human recombinant TRPV1 [2]) [nM] | Body temperature increase ΔTb ([1]; 1 mg/mL in 0.5% methylcellulose at 10 mL/kg, difference from vehicle group average) [°C] | IC50 (human recombinant TRPV1 [3]) [nM]
1 | O=C(Nc1ccc(C(F)(F)F)c(Cl)c1)N1CC=C(c2ncc(C[C@H](O)CO)cc2Cl)CC1 [AAF, (S)-N-(3-Chloro-4-(trifluoromethyl)phenyl)-4-(3-chloro-5-(2,3-dihydroxypropyl)pyridin-2-yl)-5,6-dihydropyridine-1(2H)-carboxamide] | less than 0.5 °C | ≤ 50 | – | –
2 | Cc1cc2nc(NC(=O)N3CCN(c4ncc(C[C@@H](O)CO)cc4F)CC3)sc2cc1C [ACZ, (R)-4-(5-(2,3-dihydroxypropyl)-3-fluoropyridin-2-yl)-N-(5,6-dimethylbenzo[d]thiazol-2-yl)piperazine-1-carboxamide] | – | ≤ 50 | 0.24 | –
3 | Cc1cc(NC(=O)N2CC=C(c3ncc(C[C@@H](O)CO)cc3F)CC2)ccc1OC(F)(F)F [ACB, (R)-5-(2,3-dihydroxypropyl)-3-fluoro-N-(3-methyl-4-(trifluoromethoxy)phenyl)-5′,6-dihydro-[2,4′-bipyridine]-1′(2′H)-carboxamide] | less than 0.5 °C | – | – | –
4 | Cc1cc(NC(=O)N2CC=C(c3ncc(C[C@H](O)CO)cc3C)CC2)ccc1OC(F)(F)F [ACK, (S)-4-(5-(2,3-dihydroxypropyl)-3-methylpyridin-2-yl)-N-(3-methyl-4-(trifluoromethoxy)phenyl)-5,6-dihydropyridine-1(2H)-carboxamide] | less than 0.5 °C | – | – | –
5 | Cc1cc(NC(=O)N2CC=C(c3ncc(C[C@@H](O)CO)cc3C)CC2)ccc1C(F)(F)F [ACD, (R)-4-(5-(2,3-dihydroxypropyl)-3-methylpyridin-2-yl)-N-(3-methyl-4-(trifluoromethyl)phenyl)-5,6-dihydropyridine-1(2H)-carboxamide] | less than 0.5 °C | – | – | –
6 | O=C(Nc1nc2ccc(F)cc2s1)N1CCC(F)(c2ncc(C[C@@H](O)CO)cc2Cl)CC1 [AEF, (R)-4-(3-chloro-5-(2,3-dihydroxypropyl)pyridin-2-yl)-4-fluoro-N-(6-fluorobenzo[d]thiazol-2-yl)piperidine-1-carboxamide] | less than 0.5 °C | – | – | –
7 | Cc1cc(NC(=O)N2CCC(F)(c3ncc(C[C@H](O)CO)cc3Cl)CC2)ccc1OC(F)(F)F [ACT, (S)-4-(3-Chloro-5-(2,3-dihydroxypropyl)pyridin-2-yl)-4-fluoro-N-(3-methyl-4-(trifluoromethoxy)phenyl)piperidine-1-carboxamide] | – | ≤ 50 | – | ≤ 50
8 | C[C@H]1CN(c2ncc(C[C@H](O)CO)cc2Cl)CCN1C(=O)Nc1nc2ccccc2s1 [AED] | – | ≤ 50 | – | ≤ 50
9 | C[C@H]1CN(c2ncc(C[C@H](O)CO)cc2C(F)(F)F)CCN1C(=O)Nc1nc2ccc(F)cc2s1 [AGW] | – | ≤ 50 | – | ≤ 50
10 | Cc1cc(NC(=O)N2CCC(F)(c3ncc(C[C@H](O)CO)cc3C)CC2)ccc1C(F)(F)F [ACN, (S)-4-(5-(2,3-dihydroxypropyl)-3-methylpyridin-2-yl)-4-fluoro-N-(3-methyl-4-(trifluoromethyl)phenyl)piperidine-1-carboxamide] | – | ≤ 50 | – | ≤ 50
11 | Cc1cc(NC(=O)N2CCC(F)(c3ncc(C[C@@H](O)CO)cc3C)CC2)ccc1C(F)(F)F [ACE, (R)-4-(5-(2,3-dihydroxypropyl)-3-methylpyridin-2-yl)-4-fluoro-N-(3-methyl-4-(trifluoromethyl)phenyl)piperidine-1-carboxamide] | – | ≤ 50 | – | ≤ 50
12 | C[C@@H]1CN(c2ncc(C[C@@H](O)CO)cc2F)CCN1C(=O)Nc1nc2ccc(F)cc2s1 [ADH, (R)-4-(5-[(R)-2,3-dihydroxypropyl)-3-fluoropyridin-2-yl)-N-(6-fluorobenzo[d]thiazol-2-yl]-2-methylpiperazine-1-carboxamide] | – | ≤ 50 | – | ≤ 50
13 | Cc1cc2nc(NC(=O)N3CCN(c4ncc(C[C@@H](O)CO)cc4Cl)CC3)sc2cc1C [AEH] | – | ≤ 50 | – | ≤ 50
14 | Cc1cc(C[C@@H](O)CO)cnc1N1CCN(C(=O)Nc2nc3ccc(Cl)cc3s2)[C@H](C)C1 [ADJ, (R)-N-(6-chlorobenzo[d]thiazol-2-yl)-4-{5-[(R)-2,3-dihydroxypropyl]-3-methylpyridin-2-yl}-2-methylpiperazine-1-carboxamide] | – | ≤ 50 | – | ≤ 50
15 | Cc1cc(NC(=O)N2CC=C(c3ncc(C[C@H](O)CO)cc3C)CC2)ccc1C(F)(F)F [ACL, (S)-4-(5-(2,3-dihydroxypropyl)-3-methylpyridin-2-yl)-N-(3-methyl-4-(trifluoromethyl)phenyl)-5,6-dihydropyridine-1(2H)-carboxamide] | less than 0.5 °C | – | – | –
